Experimental data taken from ChEMBL document CHEMBL1141938 (Bioorg Med Chem Lett, 2005).

Assays:
[1] = test system: Human immunodeficiency virus; assay: Antiviral activity in MT4 human T lymphoid cells infected with wild type NL4-3 HIV; type: functional; details: Human immunodeficiency virus 1, NL4-3, MT4; read-out: CIC95
[2] = test system: Human immunodeficiency virus; assay: Antiviral activity against 4X HIV strain; type: functional; details: Human immunodeficiency virus 1, 4X; read-out: CIC95
[3] = test system: Human immunodeficiency virus; assay: Antiviral activity against mutant HIV isolate K-60C; type: functional; details: Human immunodeficiency virus 1, K-60; read-out: CIC95
[4] = test system: Human immunodeficiency virus; assay: Antiviral activity against mutant HIV isolate V-18C; type: functional; details: Human immunodeficiency virus 1, V-18C; read-out: CIC95
[5] = test system: Human immunodeficiency virus; assay: Antiviral activity against mutant HIV isolate Q-60C; type: functional; details: Human immunodeficiency virus 1, Q-60C; read-out: CIC95
[6] = target: Human immunodeficiency virus type 1 protease (Human immunodeficiency virus 1, UniProt Q72874)
Description: Inhibitory activity against HIV protease

[7] = Cmax in rat at 10 mg/kg, po; type: ADME, organism-based; design: dose 10 mg/kg, route oral; details: in vivo
Rattus norvegicus = assay: AUC in rat at 10 mg/kg, po; type: ADME, organism-based, Plasma; design: dose 10 mg/kg, route oral; details: in vivo
[8] = Oral bioavailability in rat at 10 mg/kg, po; type: ADME, organism-based; details: in vivo
[9] = Half life in rat at 10 mg/kg, po; type: ADME, organism-based; design: dose 10 mg/kg, route oral; details: in vivo
[10] = Plasma clearance in rat at 10 mg/kg, po; type: ADME, organism-based; design: dose 10 mg/kg, route oral
[11] = Cmax in dog at 10 mg/kg, po; type: ADME, organism-based, Canis lupus familiaris; design: dose 10 mg/kg, route oral; details: in vivo
Canis familiaris = assay: AUC in dog at 10 mg/kg, po; type: ADME, organism-based, Canis lupus familiaris, Plasma; design: dose 10 mg/kg, route oral; details: in vivo
[12] = Oral bioavailability in dog at 10 mg/kg, po; type: ADME, organism-based, Canis lupus familiaris; details: in vivo
[13] = Half life in dog at 10 mg/kg, po; type: ADME, organism-based, Canis lupus familiaris; design: dose 10 mg/kg, route oral; details: in vivo
[14] = Plasma clearance in dog at 10 mg/kg, po; type: ADME, organism-based, Canis lupus familiaris; design: dose 10 mg/kg, route oral
Cytochrome P450 3A4 = Cytochrome P450 3A4 (Homo sapiens, UniProt P08684); assay: Inhibitory activity against CYP3A4; type: ADME
Cytochrome P450 2D6 = Cytochrome P450 2D6 (Homo sapiens, UniProt P10635); assay: Inhibitory activity against CYP2D6; type: ADME
Cytochrome P450 2C9 = Cytochrome P450 2C9 (Homo sapiens, UniProt P11712); assay: Inhibitory activity against CYP2C9; type: ADME
Chain of Cytochrome P450 2C9 (P11712 whole entry): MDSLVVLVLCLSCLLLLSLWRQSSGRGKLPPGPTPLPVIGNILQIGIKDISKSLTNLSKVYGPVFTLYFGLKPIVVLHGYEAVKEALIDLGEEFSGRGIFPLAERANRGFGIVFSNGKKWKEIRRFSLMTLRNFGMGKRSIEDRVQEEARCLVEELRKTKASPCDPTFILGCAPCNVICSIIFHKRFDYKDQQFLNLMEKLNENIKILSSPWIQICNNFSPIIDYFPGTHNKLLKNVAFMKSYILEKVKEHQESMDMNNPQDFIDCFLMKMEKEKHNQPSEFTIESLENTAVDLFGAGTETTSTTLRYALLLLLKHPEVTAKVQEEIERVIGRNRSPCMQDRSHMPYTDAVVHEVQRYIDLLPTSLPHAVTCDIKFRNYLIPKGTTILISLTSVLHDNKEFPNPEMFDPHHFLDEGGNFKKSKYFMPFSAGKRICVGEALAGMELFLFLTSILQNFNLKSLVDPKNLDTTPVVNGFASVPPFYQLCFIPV

Chain of Cytochrome P450 2D6 (P10635 whole entry): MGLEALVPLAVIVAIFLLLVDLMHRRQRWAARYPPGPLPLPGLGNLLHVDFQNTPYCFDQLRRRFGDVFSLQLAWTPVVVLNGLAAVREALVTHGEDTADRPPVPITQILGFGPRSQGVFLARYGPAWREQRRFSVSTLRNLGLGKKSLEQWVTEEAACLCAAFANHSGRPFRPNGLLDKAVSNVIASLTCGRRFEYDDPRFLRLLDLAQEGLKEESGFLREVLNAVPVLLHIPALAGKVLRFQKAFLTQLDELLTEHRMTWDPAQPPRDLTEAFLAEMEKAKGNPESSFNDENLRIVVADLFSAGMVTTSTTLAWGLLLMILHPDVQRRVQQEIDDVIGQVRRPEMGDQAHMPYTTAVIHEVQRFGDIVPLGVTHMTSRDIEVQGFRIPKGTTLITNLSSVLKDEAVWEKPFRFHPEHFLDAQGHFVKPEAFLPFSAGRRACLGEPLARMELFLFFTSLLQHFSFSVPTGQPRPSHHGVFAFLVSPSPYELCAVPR
Chain of Cytochrome P450 3A4 (P08684 whole entry): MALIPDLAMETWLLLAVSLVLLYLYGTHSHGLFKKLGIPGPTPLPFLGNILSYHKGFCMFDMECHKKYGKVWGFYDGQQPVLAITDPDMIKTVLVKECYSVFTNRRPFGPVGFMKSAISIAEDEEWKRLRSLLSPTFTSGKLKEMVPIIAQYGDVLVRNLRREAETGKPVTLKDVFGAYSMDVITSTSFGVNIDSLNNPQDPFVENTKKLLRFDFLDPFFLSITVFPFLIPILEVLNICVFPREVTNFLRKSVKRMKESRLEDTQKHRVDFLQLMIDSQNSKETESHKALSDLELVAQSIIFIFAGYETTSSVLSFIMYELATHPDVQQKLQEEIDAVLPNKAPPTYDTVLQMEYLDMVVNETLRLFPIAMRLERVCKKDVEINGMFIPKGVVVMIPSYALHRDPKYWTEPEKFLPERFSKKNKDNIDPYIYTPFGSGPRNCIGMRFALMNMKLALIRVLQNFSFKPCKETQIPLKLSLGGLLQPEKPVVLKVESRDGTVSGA

Row | SMILES | IC95 [1] [µM] | IC95 [2] [µM] | IC95 [3] [µM] | IC95 [4] [µM] | IC95 [5] [µM] | IC50 [6] [nM] | Cmax [7] [nM] | AUC (Rattus norvegicus) [uMh] | bioavailability [8] [%] | half-life [9] [min] | CL/F [10] [mL/min/kg] | Cmax [11] [nM] | AUC (Canis familiaris) [uMh] | bioavailability [12] [%] | half-life [13] [min] | CL/F [14] [mL/min/kg] | IC50 (Cytochrome P450 3A4) [nM] | IC50 (Cytochrome P450 2D6) [nM] | IC50 (Cytochrome P450 2C9) [nM]
1 | CC(C)(c1ncc(-c2ccc(Cl)cc2)o1)N1CCN(C[C@@H](O)C[C@@H](Cc2cc3ccncc3s2)C(=O)N[C@H]2c3ccccc3OC[C@H]2O)[C@H](C(=O)NCC(F)(F)F)C1 | < 0.0078 | < 0.0078 | < 0.0078 | < 0.0078 | < 0.0078 | < 0.02 | – | – | – | – | – | – | – | – | – | – | – | – | –
2 | CC(C)(c1ncc(-c2ccc(Cl)cc2)o1)N1CCN(C[C@@H](O)C[C@@H](Cc2cc3ccncc3o2)C(=O)N[C@H]2c3ccccc3OC[C@H]2O)[C@H](C(=O)NCC(F)(F)F)C1 | < 0.0078 | < 0.0078 | < 0.0078 | 0.031 | < 0.0078 | 0.02 | 180 | 0.29 | 14 | 48 | 98 | 2100 | 0.39 | 42 | 60 | 23 | < 1000 | < 1000 | < 1000
3 | Cc1ccncc1-c1ccc(C[C@H](C[C@H](O)CN2CCN(Cc3ccc(-c4ccc(Cl)cc4)s3)C[C@H]2C(=O)NCC(F)(F)F)C(=O)N[C@H]2c3ccccc3OC[C@H]2O)o1 | < 0.0078 | 0.0156 | 0.125 | 0.0625 | 0.0625 | 0.04 | – | – | – | – | – | – | – | – | – | – | – | – | –
4 | Cc1ccncc1-c1ccc(C[C@H](C[C@H](O)CN2CCN(C(C)(C)c3ncc(-c4ccc(Cl)cc4)s3)C[C@H]2C(=O)NCC(F)(F)F)C(=O)N[C@H]2c3ccccc3OC[C@H]2O)o1 | 0.0156 | 0.0313 | 0.0156 | 0.25 | 0.0313 | 0.03 | – | – | – | – | – | – | – | – | – | – | – | – | –
5 | O=C(N[C@H]1c2ccccc2OC[C@H]1O)[C@H](Cc1cc2cnccc2s1)C[C@H](O)CN1CCN(Cc2csc(-c3ccc(C(F)(F)F)cc3)n2)C[C@H]1C(=O)NCC(F)(F)F | 0.026 | 0.125 | 0.0313 | 0.375 | 0.0938 | 0.07 | – | – | – | – | – | – | – | – | – | – | – | – | –
6 | CC(C)(c1ncc(-c2ccc(Cl)cc2)o1)N1CCN(C[C@@H](O)C[C@@H](Cc2cc3c(Cl)cncc3s2)C(=O)N[C@H]2c3ccccc3OC[C@H]2O)[C@H](C(=O)NCC(F)(F)F)C1 | < 0.0078 | < 0.0078 | < 0.0078 | 0.0156 | < 0.0078 | < 0.02 | – | – | – | – | – | – | – | – | – | – | – | – | –
7 | CC(C)(C)NC(=O)[C@@H]1CN(Cc2cccnc2)CCN1C[C@@H](O)C[C@@H](Cc1ccccc1)C(=O)N[C@H]1c2ccccc2C[C@H]1O | 0.05 | 0.4 | > 1 | > 1 | > 1 | – | – | – | – | – | – | – | – | – | – | – | – | – | –
